Data from ChEMBL document CHEMBL1148777, “Toward the development of prophylactic and therapeutic human papillomavirus type-16 lipopeptide vaccines” (J Med Chem, 2007).
The source made the active and inactive calls. The rule behind the calls is not given here. *1 amine or outer side, *2 acyl side, *3 side chain or, on linkers, in order; H or OH if unused. Where a SMILES comes first, the peptide text is derived from it. [ ]: non-standard residue; d: D form. The star is where a group is joined. ξ: configuration not given here. X3 = CC(=O)OC[C@@H]1O[C@H](N*)[C@H](OC(C)=O)[C@H](OC(C)=O)[C@H]1OC(C)=O; X2 = OC[C@@H]1O[C@H](N*)[C@@H](O)[C@H](O)[C@H]1O; X1 = OC[C@@H]1O[C@H](N*)[C@H](O)[C@H](O)[C@H]1O; Ile(3ξ) = CCC(C)[C@H](N)C(=O)O; Thr(3ξ) = CC(O)[C@H](N)C(=O)O; Suc = O=C(CCC(=O)[*:2])[*:1]

Legend:
TC1 [1] = assay: Antitumor activity against HPV16 associated TC1 cells xenografted C57BL/6(H2b) mouse
TC1 [2] = assay: Antitumor activity against HPV16 associated TC1 cells xenografted C57BL/6(H2b) mouse at 40 ug; format: functional

SMILES	Activity (TC1 [1])	Activity (TC1 [2])
CC[C@H](C)[C@H](NC(=O)[C@@H](NC(=O)[C@@H](N)CO)[C@@H](C)CC)C(=O)N[C@@H](CC(N)=O)C(=O)N[C@@H](Cc1ccccc1)C(=O)N[C@@H](CCC(=O)O)C(=O)N[C@@H](CCCCN)C(=O)N[C@@H](CC(C)C)C(=O)O	inactive	
CCC(C)[C@H](NC(=O)[C@H](CC(N)=O)NC(=O)[C@H](Cc1ccc(O)cc1)NC(=O)[C@H](Cc1cnc[nH]1)NC(=O)[C@H](C)NC(=O)[C@H](CCCNC(=N)N)NC(=O)[C@H](CC(=O)O)NC(=O)[C@@H]1CCCN1C(=O)[C@H](CCC(=O)O)NC(=O)[C@H](C)NC(=O)[C@H](CCC(N)=O)NC(=O)CCC(=O)N[C@H]1O[C@@H](CO)[C@H](O)[C@@H](O)[C@H]1O)C(=O)N[C@H](C(=O)N[C@H](C(=O)N[C@@H](Cc1ccccc1)C(=O)N[C@@H](CS)C(=O)N[C@@H](CS)C(=O)N[C@@H](CCCCN)C(=O)N[C@@H](CS)C(=O)N[C@@H](CC(=O)O)C(N)=O)C(C)O)C(C)C (some centres undefined) ({X1-Suc}-QAEPDRAHYN[Ile(3ξ)]V[Thr(3ξ)]FCCKCD-NH2)		inactive
CCC(C)[C@H](NC(=O)[C@H](CC(N)=O)NC(=O)[C@H](Cc1ccc(O)cc1)NC(=O)[C@H](Cc1cnc[nH]1)NC(=O)[C@H](C)NC(=O)[C@H](CCCNC(=N)N)NC(=O)[C@H](CC(=O)O)NC(=O)[C@@H]1CCCN1C(=O)[C@H](CCC(=O)O)NC(=O)[C@H](C)NC(=O)[C@H](CCC(N)=O)NC(=O)CCC(=O)N[C@H]1O[C@@H](CO)[C@H](O)[C@@H](O)[C@@H]1O)C(=O)N[C@H](C(=O)N[C@H](C(=O)N[C@@H](Cc1ccccc1)C(=O)N[C@@H](CS)C(=O)N[C@@H](CS)C(=O)N[C@@H](CCCCN)C(=O)N[C@@H](CS)C(=O)N[C@@H](CC(=O)O)C(N)=O)C(C)O)C(C)C (some centres undefined) ({X2-Suc}-QAEPDRAHYN[Ile(3ξ)]V[Thr(3ξ)]FCCKCD-NH2)		inactive
CCC(C)[C@H](NC(=O)[C@H](CC(N)=O)NC(=O)[C@H](Cc1ccc(O)cc1)NC(=O)[C@H](Cc1cnc[nH]1)NC(=O)[C@H](C)NC(=O)[C@H](CCCNC(=N)N)NC(=O)[C@H](CC(=O)O)NC(=O)[C@@H]1CCCN1C(=O)[C@H](CCC(=O)O)NC(=O)[C@H](C)NC(=O)[C@H](CCC(N)=O)NC(=O)CCC(=O)N[C@H]1O[C@@H](COC(C)=O)[C@H](OC(C)=O)[C@@H](OC(C)=O)[C@H]1OC(C)=O)C(=O)N[C@H](C(=O)N[C@H](C(=O)N[C@@H](Cc1ccccc1)C(=O)N[C@@H](CS)C(=O)N[C@@H](CS)C(=O)N[C@@H](CCCCN)C(=O)N[C@@H](CS)C(=O)N[C@@H](CC(=O)O)C(N)=O)C(C)O)C(C)C (some centres undefined) ({X3-Suc}-QAEPDRAHYN[Ile(3ξ)]V[Thr(3ξ)]FCCKCD-NH2)		inactive
